Data taken from publication PMC12606464, “Investigating NFE2L1 activators for targeted protein aggregate clearance: a follow-up study” (RSC Medicinal Chemistry, 2025).

Legend:
[1] = tested on: ubiquitin-proteasome system; experiment: Ub-G76V-GFP reporter degradation in U2OS cells; format: cell-based
From the text: (§1) We next examined whether the selected RUN compounds activate the NFE2L1 pathway in a stress-independent manner, while preserving normal ubiquitin-dependent proteasomal degradation. This distinction is crucial, as the therapeutic benefit of NFE2L1 activation lies in its ability to alleviate proteotoxic stress and target disease-related proteins for degradation without compromising normal proteostasis. To assess this, U2OS cells stably expressing the short-lived fluorescent reporter Ub-G76V-GFP were treated with various concentrations of RUN compounds. […] We also examined whether compound-induced activation of NFE2L1 could be attributed to the generation of reactive oxygen species (ROS). To test this, the 3×PSMA4-ARE-LUC reporter assay was performed in the presence or absence of the antioxidant N-acetyl-L-cysteine (NAC). A decrease in reporter activity upon NAC treatment would indicate pathway activation through oxidative stress.
RUN compound (5 µM) for 8 hours. Fluorescence intensity was normalized to cell viability (measured by the alamarBlue assay) and compared to vehicle control (DMSO). Unlike the […]
as means ± SD from three independent experiments (n = 3). Statistical analysis was performed using a multiple unpaired t-test with Welch’s correction, with adjustment for multiple comparisons by the Holm–Šídák method (α = 0.05). ****p<0.0001. Detailed results of the analysis are shown in Supplementary Table S14. […]
2.4 Monitoring protein degradation using UbG76V-GFP reporter cells
U2OS cells stably expressing the Ub-G76V-GFP reporter were seeded into 96-well plates at and cultured overnight under standard conditions. On the following day, cells were treated with the indicated test compounds or DMSO vehicle control for 8 hours. After treatment, GFP fluorescence intensity was measured, providing a readout of proteasome-dependent degradation of the Ub-G76V-GFP substrate. Cell viability was then assessed in the same wells using the alamarBlue assay according to the manufacturer’s protocol. Viability values were used for normalization of fluorescence data to account for differences in cell number. Accumulation of GFP signal relative to DMSO-treated controls was interpreted as reduced degradation of UPS substrates, indicating potential effects of the compounds on the natural protein turnover.
Statistical comparison of RUN compounds with ASC-JM17 was performed using a multiple unpaired t-test with Welch’s correction, with adjustment for multiple comparisons by the Holm–Šídák method (α = 0.05) in GraphPad Prism (v 10.6.1). […]
RNA was extracted using […]
the RNeasy® Plus Micro Kit according to the manufacturer’s instructions. Complementary DNA (cDNA) was synthesized from RNA using either t he TATAA GrandScript cDNA Supermix (TATAA Biocenter) or the QuantiTect® Reverse Transcription Kit (Qiagen), following the respective protocols. Quantitative RT -PCR was performed on a LightCycler® 480 instrument (Roche Life Science) using the TATAA SYBR® Gr andMaster® Mix (TATAA […]
Biocenter). Gene expression levels were normalized to RPLP0, and relative expression was calculated using the ΔΔCt method. Data were expressed as fold change relative to the corresponding DMSO control. Statistical analysis of changes in gene expression was performed w ith a ratio paired t-test corrected for multiple comparisons using Holm-Šídák's method (α = 0.05) in GraphPad Prism (v 10.6.1).
Table S1. Sequences of primer pairs used in the qRT -PCR analysis of gene expression.

NFE2L1 pathway [2] = experiment: 3×PSMA4-ARE-LUC dual luciferase reporter assay in HEK293 cells; format: cell-based, human; details: Homo sapiens; 5 μM, 16 h, HEK293, luminescence relative to DMSO-treated cells; read-out: NFE2L1 activation [5 μM]
From the text: In our previous work,[43] we developed a library of NFE2L1 stimulators using a cell-based luciferase reporter assay. This system was based on three tandem copies of the antioxidant response element (ARE) derived from the NFE2L1 target gene proteasome subunit alpha type-4 (3xPSMA4, PSMA4-ARE-LUC). It was designed to detect the proteasome “bounce-back” response induced by proteasome inhibitors such as MG132 or bortezomib.[22,43,45,46] The reporter assay was adapted to a 384-well format and used to evaluate a new set of RUN compounds designed around the structural framework of the RUN-47 activator. We focused on identifying compounds that increased the 3×PSMA4-ARE-LUC signal (Fig. 1A), while simultaneously assessing cytotoxicity (see the SI, Fig. S2). […] In contrast, thiourea- and urea-containing derivatives generally produced only weak to intermediate responses, rarely exceeding a fold change of 7.
(§2) Fig. 1 (A) Targeted library screening of RUN compounds using the 3×PSMA4-ARE-LUC dual reporter assay in HEK293 cells. Cells were exposed to RUN compounds (5 μM) for 16 hours, and luciferase activity was measured. Data are presented as the mean ± SD from three independent experiments (n = 3). Results are shown as a fold change in luminescence relative to DMSO-treated cells. Selected hit compounds are highlighted in distinct colours. (B) RUN-89 specifically activates the NFE2L1 pathway. The DDI2 knockout (KO) and parental (WT) HCT116 cells were transfected with the 3×PSMA4-ARE-LUC reporter and treated with 0.5 μM bortezomib (BTZ) and 5 μM RUN-89 for 16 hours. Data are presented as the Geomean ± GeoSD of three independent experiments (n = 3). Statistical analysis was performed on log2-transformed values using two-way repeated-measures ANOVA followed by Šídak's multiple comparison test. (C) RUN-89 selectively triggers downstream signaling events associated with NFE2L1 gene expression. HEK293 cells were transfected with lipid nanoparticles (LNPs) carrying siRNAs targeting NFE2L1 or NFE2L2. LNPs formulated with non-targeting siRNA served as a negative control. Following 24 hours of incubation, cells were treated with 7.5 μM RUN-89 or DMSO (vehicle) for an additional 16 hours. Expression of the proteasomal subunit gene PSMC4 was then quantified by RT-qPCR. Data are shown as the Geomean ± GeoSD from three independent biological replicates (n = 3). Log2-transformed data were analyzed using two-way repeated-measures ANOVA with the Geisser–Greenhouse correction, followed by Tukey's multiple comparison test with individual variances computed for each comparison. Additional results for NFE2L1, NFE2L2, PSMB7, and PSMD12 are presented in SI Fig. S10.
Figure S1: Concentration–response of luciferase cell-based assay (PSMA4-ARE-luc2P reporter) on treatment with RUN-81, RUN-89, and RUN-94. Concentration is plotted on the X-axis. Dose–response relationships were analyzed using a four-parameter logistic curve (4PL), or a bell-shaped dose-response curve, both with weighting 1/Y^2. Dotted lines represent 95% confidence bands. Calculated EC₅₀ values, curve parameters, and asymmetrical confidence intervals are summarized in the accompanying table . Data are presented as mean ± SD from four independent experiments (n=4).
(§3) 2 Biology Experimental Procedures
(§4) Safety statement: No unexpected or unusually high safety hazards were encountered. […]
Most of the cell lines were cultured in Dulbecco's Modified Eagle Medium (DMEM) enriched with 10% fetal bovine serum (FBS) and 2 mM L-glutamine, under standard conditions of 37 °C with 5% CO₂. DNA transfection was performed with Lipofectamine 2000, following the manufacturer's instructions. Transgenic cells were then selected with either G418 (400 µg/mL) or hygromycin B (450 µg/mL), based on the selection marker encoded by the plasmid used. Cell viability was evaluated using the […]

NFE2L1 pathway [3] = experiment: 3×PSMA4-ARE-LUC reporter with or without N-acetyl-L-cysteine (NAC); format: cell-based, human; details: HEK293, 5 μM, 16 h
From the text: as §1, with “stress. […]” for “stress.”
To determine whether RUN compounds activate the NFE2L1 pathway via reactive oxygen species (ROS) generation or through Keap1-NRF2 pathway crosstalk, we used the 3xPSMA4-ARE-LUC dual reporter assay in HEK293 cells. […] A reduction in luminescence signal upon NAC co-treatment would indicate that the compound activates the reporter via ROS-mediated mechanism or Keap1-NRF2-dependent oxidative/electrophilic stress. […]

HEK293 cells = experiment: alamarBlue cytotoxicity assessment in HEK293 cells; format: cell-based, human; details: HEK293, alamarBlue, 16 h; concentration not given
Method: Figure S2: Concentration-dependent cytotoxicity assessment of RUN compounds.
HEK293 cells were treated for 16 hours with increasing concentrations of RUN compounds (1.25 µM; 2.5 µM; 5; 7.5 and 10 µM) or DMSO (negative control). Cell viability was determined using the alamarBlue assay following the protocol of Riss.(1) Data are presented as means ± SD from three independent experiments (n = 3). Statistical analysis was done using repeated measures one-way ANOVA with Geisser–Greenhouse correction, followed by Dunnett’s multiple comparisons test. *p<0.05. Detailed results of the analysis are shown in […]
(1 picture or pasted object on this page, not shown here)
as §3, §4
(§5) Cell lines were sourced from the ATCC (USA) and/or ECACC (UK), namely HCT116 (human colorectal carcinoma), ATCC CCL-247 (RRID:CVCL_0291), HEK-293 (human embryonic kidney), ATCC CRL-1573 (RRID:CVCL_0045), SH-SY5Y (human neuroblastoma), ATCC CRL-2266 (RRID:CVCL_0019). The characteristics of DDI2 knockout cells derived from HCT116 cells have been described previously (Sedlacek et al., 2025). All cell lines were tested for mycoplasma contamination. Most of the cell lines were cultured in Dulbecco's Modified Eagle Medium (DMEM) enriched with 10% fetal bovine serum (FBS) and 2 mM L-glutamine, under standard conditions of 37 °C with 5% CO₂. DNA transfection was performed with Lipofectamine 2000, following the manufacturer's instructions. Transgenic cells were then selected with either G418 (400 µg/mL) or hygromycin B (450 µg/mL), based on the selection marker encoded by the plasmid used. […]

[4] = tested on: NFE2L1 pathway (DDI2-dependent) in HCT116 cells; experiment: 3×PSMA4-ARE-LUC reporter in HCT116 WT and DDI2 knockout cells; format: cell-based, human
Method: as §2
To clarify whether the representative compound RUN-89 activates the NFE2L1-specific luciferase reporter independently of the KEAP1–NFE2L2 pathway, we used the 3×PSMA4-ARE-LUC dual reporter in previously published DDI2 knockout HCT116 cells (from ATCC CCL-247 (RRID:CVCL_0291)), in which the protease essential for NFE2L1 activation is disrupted. […] These findings indicate that RUN-89 activates the reporter construct through NFE2L1.
2 Biology Experimental Procedures […]
as §5, with “instructions.” for “instructions. Transgenic cells were then selected with either G418 (400 µg/mL) or hygromycin B (450 µg/mL), based on the selection marker encoded by the plasmid used.”
alamarBlue assay according to the standard protocol.(1)
2.3 Dual luciferase phenotypic assays
HEK293-derived cells stably expressing the 3×PSMA4-ARE-Luc reporter were maintained at low to mid passage numbers before use. For each experiment, cells were transiently transfected with the pRL-TK Renilla luciferase plasmid using Lipofectamine 2000.
Approximately 5–6 hours post-transfection, cells were seeded into plate format according to the experiment (384-well plate mostly). On the following day, cells were treated with the indicated test compounds or DMSO vehicle control for 16 hours (unless otherwise specified).
After treatment, cells were lysed and luciferase activities were quantified using the Dual-Luciferase® Reporter Assay System according to the manufacturer’s instructions and established protocols.(2, 3) For assays using the CMV-XBP-Gluc construct encoding Gaussia […]

SMILES: COc1ccc(/C=C/C(=O)C(CC2CCC2)C(=O)/C=C/c2ccc(OC)c(OC)c2)cc1OC [ASC-JM-17, reference compound]
- Ub-G76V-GFP reporter assay, mean ([1]; U2OS cells, Fig. S3): 4.073
- Ub-G76V-GFP degradation (ubiquitin-proteasome system function) ([1]; U2OS, 5 μM, 8 h, versus DMSO): impaired proteasomal degradation

SMILES: COc1ccc(/C=C2\CNC/C(=C\c3ccc(OC)c(OC)c3)C2=O)cc1OC [RUN-84]
- fold induction at 5 µM (NFE2L1 pathway [2]): 4
- NFE2L1 reporter activation in the presence of NAC (NFE2L1 pathway [3]): reduction in activation
- Tox [% of ctrl.] (HEK293 cells): 73% of ctrl.

SMILES: CC(C)C[C@H](NC(=O)[C@H](Cc1ccccc1)NC(=O)c1cnccn1)B(O)O [BTZ, bortezomib, reference compound]
- Mean log2-transformed reporter fold change, HCT116 KO 04 ([4]; DDI2-/- clone KO 04, 0.5 μM BTZ or 5 μM RUN-89, 16 h, DMSO = 0): 0.1712
- Mean log2-transformed reporter fold change, HCT116 KO 11 ([4]; DDI2-/- clone KO 11, 0.5 μM BTZ or 5 μM RUN-89, 16 h, DMSO = 0): 0.1696
- Reporter activity in DDI2-deficient cells ([4]; DDI2 knockout HCT116, in contrast to wild-type cells): neither the proteasome inhibitor bortezomib nor RUN-89 induced reporter activity
- Mean log2-transformed reporter fold change, HCT116 WT ([4]; WT (DDI2+/+), 0.5 μM BTZ or 5 μM RUN-89, 16 h, DMSO = 0): 1.529
